In PMC11940194, “Synthesis, Antiproliferative Activity, and ADME Profiling of Novel Racemic and Optically Pure Aryl-Substituted Purines and Purine Bioisosteres” (Biomolecules, 2025):
Entries after “also recorded” stand apart in the source; their conditions may differ.

Tests used:
[1] = test system: MCF-7, CFPAC-1, HT-29, HepG2 tumor cell lines and HFF-1 fibroblasts; test: Antiproliferative activity, whole cell line panel; type: cell-based, human; settings: tested cell lines
Protocol: The human ATCC tumor cell lines breast adenocarcinoma (MCF7), colorectal carcinoma (HT-29), pancreatic ductal adenocarcinoma (CFPAC-1), hepatocellular carcinoma (HepG2), and normal skin fibroblasts (HFF) derived from ATCC (American Type Culture Collection) were cultured in Dulbecco’s Modified Eagle Medium (DMEM) or Minimum Essential Medium (MEM) supplemented with 10% fetal bovine serum (FBS), 2 mM L-glutamine, 100 U/mL penicillin, and 100 µg/mL streptomycin (Lonza, Basel, Switzerland) in a humidified atmosphere with 5% CO2 at 37 °C. For the experiment, carcinoma cell lines and normal human cell lines were seeded in 96-well microtiter plates at a density of 3000 cells per well and 5000 cells per well, respectively, depending on the doubling time of the specific cell line. The test substances were then added at fivefold, tenfold dilutions (0.01 to 100 µM), freshly prepared in the growth medium on the day of testing, and incubated for a further 72 h. After 72 h of incubation, the growth rate of the cells was determined using the MTT assay according to the manufacturer’s guidelines. […] The IC50 values were calculated from the dose–response curves using linear regression analysis. The experiment was performed in tetraplicates in two individual experiments.
Newly synthesized compounds were evaluated for their cytotoxic activity in vitro against four human cancer cell lines, including human breast adenocarcinoma (MCF-7), ductal pancreatic adenocarcinoma (CFPAC-1), colorectal carcinoma (HT-29), and hepatocellular carcinoma (HepG2), as well as on non-cancerous skin fibroblasts (HFF-1), to check for non-specific toxicity. Furthermore, 5-Fluorouracil (5-FU) was used as a reference drug. The results are expressed as 50% inhibitory concentration (IC50) values and are listed in Table 2, Table 3, Table 4 and Table 5.

[2] = Hydrolytic stability in aqueous buffer (UV/Vis); type: physicochemical; settings: phosphate buffer/DMSO 99:1, pH 7.4, 1 × 10⁻⁴ mol dm⁻³, UV/Vis spectra over 24 h
Source text: Solvents and chemicals, including starting purines and purine bioisosters 1–5, as well as para-substituted 2-phenyloxiranes 11–15 and phenacyl bromide 21–25, were purchased from Sigma-Aldrich (St. Louis, MO, USA), Alfa Aesar (Haverhill, MA, USA), and Fisher Scientific International (Pittsburgh, PA, USA). The progress of all reactions was monitored by thin layer chromatography on pre-coated Merck (Darmstadt, Germany) silica gel plates 60F254. The synthesized compounds were purified via column chromatography using Fluka (Buchs, Switzerland) silica gel (0.063−0.2 mm) and the appropriate solvent. All NMR spectra were recorded using a Bruker 300, 400, and 600 MHz NMR spectrometer (Bruker Biospin, Rheinstetten, Germany) in deuterated DMSO solutions, with TMS as the internal standard. The melting points of all newly synthesized compounds were determined using a Koffler (Reichert, Vienna) hot stage microscope. The ^1H (δ/ppm) and ^13C NMR (δ/ppm) spectra of compounds 26a,b–49a,b can be found in the Supporting Information (Figures S1–S48). The purity of all newly synthesized compounds was determined by elemental analysis and the elemental analysis results are within 0.5% of the theoretical values. The UV/Vis absorption spectra of compounds 40a, 45a, and 49b were measured at a concentration of 1 × 10⁻⁴ mol dm⁻³ in phosphate buffer and DMSO (99:1, v/v) at pH 7.4 using a Varian Cary 50 spectrophotometer in double-beam mode at 25 °C.
Selected 6-chloropurine (40a), 4-chloropyrrolo[2,3-d]pyrimidine (45a), and 4-chloroimidazo[4,5-c]pyridine (49b) with significant antiproliferative activity were examined for hydrolytic stability in an aqueous buffer solution.
2. UV/Vis absorption spectra of selected compounds
Figure S49. UV/Vis absorption spectra of compounds 40a (a), 45a (b), and 49b (c) recorded in phosphate buffer with 1% DMSO (99:1, v/v) at pH 7.4 (c = 1 × 10⁻⁴ mol dm⁻³). Spectra were measured immediately after sample preparation and after 24 hours to evaluate spectral stability over time.
(1 picture or pasted object on this page, not shown here)

[3] = test system: MDCKII-MDR1 cells (P-glycoprotein); test: MDCKII-MDR1 permeability assay; type: in vitro ADME, canine cells with over-expressed human MDR1 gene; settings: permeability class
In short: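 Bidirectional transport across MDCKII cells overexpressing human MDR1, compounds 10 µM (1% DMSO) for 60 min at 37 °C, with and without 2 µM elacridar. Monolayer integrity checked by Lucifer yellow; compound concentrations quantified by LC-MS/MS (MRM).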

hydrolytic stability [2] | Compound | antiproliferative activity (in words) [1] | Permeability [3]
hydrolytically stable | OCC(c1ccc(C(F)(F)F)cc1)n1cc(Cn2ccc3c(Cl)ncnc32)nn1 (stereo not shown) [Compound 45a, 4-Chloro-7-((1-(2-hydroxy-1-(4-(trifluoromethyl)phenyl)ethyl)-1H-1,2,3-triazol-4-yl)methyl)-7H-pyrrolo[2,3-d]pyrimidine] | submicromolar antiproliferative activity | good membrane permeability; also recorded: MODERATE
hydrolytically stable | OC(Cn1cc(Cn2cnc3c(Cl)nccc32)nn1)c1ccc(Br)cc1 (stereo not shown) [Compound 49b, 4-Chloro-1-((1-(2-hydroxy-2-(4-bromophenyl)ethyl)-1H-1,2,3-triazol-4-yl)methyl)-1H-imidazo[4,5-c]pyridine] | – | –
